The record followed here is patent publication US20260055096A1, “AZOLE PESTICIDAL COMPOUNDS” (BASF SE, priority 2022, published 2026).

Assay type in all cases: in vivo
For test [1], the system named is Southern armyworm (Spodoptera eridania), 2nd instar larvae. Put plainly: Example B.7: Action on southern armyworm (Spodoptera eridania), 2nd instar larvae on sprayed lima bean plants. As to conditions: 96 h, 4 days after treatment, read-out: mortality in comparison with untreated controls. Here is the method:
The active compounds were formulated by a Tecan liquid handler in 100% cyclohexanone as a 10,000-ppm solution supplied in tubes. The 10,000-ppm solution was serially diluted in 100% cyclohexanone to make interim solutions. These served as stock solutions for which final dilutions were made by the Tecan in 50% acetone:50% water (v/v) into 10 or 20 ml glass vials. A nonionic surfactant (Kinetic®) was included in the solution at a volume of 0.01% (v/v). The vials were then inserted into an automated electrostatic sprayer equipped with an atomizing nozzle for application to plants/insects.
Lima bean plants (variety Sieva) were grown 2 plants to a pot and selected for treatment at the 1st true leaf stage. Test solutions were sprayed onto the foliage by an automated electrostatic plant sprayer equipped with an atomizing spray nozzle. The plants were dried in the sprayer fume hood and then removed from the sprayer. Each pot was placed into perforated plastic bags with a zip closure. About 10 to 11 armyworm larvae were placed into the bag and the bags zipped closed. Test plants were maintained in a growth room at about 25° C. and about 20-40% relative humidity for 4 days, avoiding direct exposure to fluorescent light (24-hour photoperiod) to prevent trapping of heat inside the bags. Mortality and reduced feeding were assessed 4 days after treatment, compared to untreated control plants.

For test [2], the system named is Diamond back moth (Plutella xylostella). Briefly: Example B.6: Action on diamond back moth (Plutella xylostella), cabbage leaf dip, 3rd instar larvae. Conditions: foliar, 72 hours after treatment, read-out: mortality in comparison with untreated controls. Here is the method: The active compound is dissolved at the desired concentration in a mixture of 1:1 (v/v) distilled water: acetone. Surfactant (Kinetic® HV) is added at a rate of 0.01% (v/v). The test solution is prepared at the day of use.
Leaves of cabbage were dipped in test solution and air-dried. Treated leaves were placed in petri dishes lined with moist filter paper and inoculated with ten 3rd instar larvae. Mortality was recorded 72 hours after treatment. Feeding damages were also recorded using a scale of 0-100%.

Test [3] relates to yellow fever mosquito (Aedes aegypti). Briefly: whole plant or invertebrate. As to conditions: 48 h, larval mortality after 2 days, read-out: mortality in comparison with untreated controls. The procedure:
For evaluating control of yellow fever mosquito (Aedes aegypti) the test unit consisted of 96-well-microtiter plates containing 200 μl of tap water per well and 5-15 freshly hatched A. aegypti larvae.
The active compounds or mixtures were formulated using a solution containing 75% (v/v) water and 25% (v/v) DMSO. Different concentrations of formulated compounds or mixtures were sprayed onto the insect diet at 2.5 μl, using a custom-built micro atomizer, at two replications.
For experimental mixtures in these tests identical volumes of both mixing partners at the desired concentrations respectively, were mixed together.
After application, microtiter plates were incubated at 28 #1° C., 80 #5% RH for 2 days. Larval mortality was then visually assessed.

The subject of test [4] is Orchid thrips (Dichromothrips corbetti). Briefly: Example B.2: Action on orchid thrips (Dichromothrips corbetti), floral-immersion technique. As to conditions: 72 hours after treatment, read-out: mortality in comparison with untreated controls. Here is the method: Dichromothrips corbetti adults used for bioassay were obtained from a colony maintained continuously under laboratory conditions. For testing purposes, the test compound is diluted in a 1:1 mixture of acetone:water (vol:vol), plus Kinetic® HV at a rate of 0.01% v/v.
Thrips potency of each compound was evaluated by using a floral-immersion technique. All petals of individual, intact orchid flowers were dipped into treatment solution and allowed to dryin Petri dishes. Treated petals were placed into individual re-sealable plastic along with about 20 adult thrips. All test arenas were held under continuous light and a temperature of about 28° C. for duration of the assay. After 3 days, the numbers of live thrips were counted on each petal. The percent mortality was recorded 72 hours after treatment.

Test [5] relates to boll weevil (Anthonomus grandis). Put plainly: Example B.3: Action on boll weevil (Anthonomus grandis), egg and larval mortality on insect diet. As to conditions: 120 h, egg and larval mortality after 5 days, read-out: mortality in comparison with untreated controls. Here is the method:
For evaluating control of boll weevil (Anthonomus grandis) the test unit consisted of 96-well-microtiter plates containing an insect diet and 5-10 A. grandis eggs.
The compounds were formulated using a solution containing 75% (v/v) water and 25% (v/v) DMSO. Different concentrations of formulated compounds were sprayed onto the insect diet at […], using a custom-built micro atomizer, at two replications.
After application, microtiter plates were incubated at about 25±1C and about 75±5% relative humidity for 5 days. Egg and larval mortality were then visually assessed.

Test [6] has as its system tobacco budworm (Heliothis virescens). Briefly: Example B.5: Action on tobacco budworm (Heliothis virescens), egg and larval mortality on insect diet. Conditions: 120 h, egg and larval mortality after 5 days, read-out: mortality in comparison with untreated controls. The procedure: For evaluating control of tobacco budworm (Heliothis virescens) the test unit consisted of 96-well-microtiter plates containing an insect diet and 15-25 H. virescens eggs.
The compounds were formulated using a solution containing 75% v/v water and 25% v/v DMSO. Different concentrations of formulated compounds were sprayed onto the insect diet at 10 μl, using a custom-built micro atomizer, at two replications.
After application, microtiter plates were incubated at about 28±1C and about 80±5% relative humidity for 5 days. Egg and larval mortality were then visually assessed.

Test [7] concerns Diamond back moth (Plutella xylostella). Put plainly: Example B.8: Action on diamond back moth (Plutella xylostella), egg and larval mortality on insect diet in microtiter plates. Conditions: for egg and larval mortality: comparative experiment vs prior art compounds; for mortality at 800 ppm: Plutella xylostella, 120 h, egg and larval mortality after 5 days, read-out: mortality in comparison with untreated controls. Here is the method:
For evaluating control of diamond back moth (Plutella xylostella) the test unit consisted of 96-well-microtiter plates containing an insect diet and 15-25 P. xylostella eggs. The compounds or mixtures were formulated using a solution containing 75% water and 25% DMSO. Different concentrations of formulated compounds or mixtures were sprayed onto the insect diet at 5 μl, using a custom-built micro atomizer, at two replications. For experimental mixtures in these tests identical volumes of both mixing partners at the desired concentrations respectively, were mixed together. After application, microtiter plates were incubated at 28±1° C., 80±5% RH for 5 days. Egg and larval mortality was then visually assessed.

For `Cc1ccc(C(C)C)c(N2C(=O)CS/C2=N\C(=O)Nc2ccc(-c3nn(C)c(NC(=O)c4ccc(OC(F)(F)F)cc4)c3C)cc2Cl)c1` [Example C-8, N-[5-[3-chloro-4-[[(Z)-[3-(2-isopropyl-5-methyl-phenyl)-4-oxo-thiazolidin-2-ylidene]carbamoyl]amino]phenyl]-2,4-dimethyl-pyrazol-3-yl]-4-(trifluoromethoxy)benzamide], the mortality at 300 ppm in test [1], in test [2] and in test [4] was ≥ 75% in each case. The mortality (as a rule, the share of the test organisms that died) at 800 ppm in test [3] was ≥ 50%; in test [5] it was ≥ 75%; in test [6] it was ≥ 75%.
For `CC(C)c1ccccc1N1C(=O)CS/C1=N\C(=O)Nc1ccc(-c2nc(NC(=O)c3cccc(OC(F)(F)F)c3)n(C)n2)cc1` [Example C-126], the “egg and larval mortality” value is on record as 75 in test [7] (25 ppm) and 100 in test [7] (100 ppm). For the same compound, the mortality at 800 ppm in test [7] is ≥ 75%; in test [3], ≥ 50%; in test [5], ≥ 75%; in test [6], ≥ 75%. The mortality at 300 ppm in test [1] was ≥ 75%.
Regarding `CC(C)c1ccccc1N1C(=O)CS/C1=N\C(=O)Nc1ccc(-c2nc(Nc3ccc(OC(F)(F)F)cc3)n(C)n2)cc1` [EP3974414 I-001, reference compound], the “egg and larval mortality” value in test [7] (25 ppm) is given as 0.
`Cc1ccc(C(C)C)c(N2C(=O)CS/C2=N\C(=O)Nc2ccc(-c3nc(NC(=O)c4ccc(OC(F)(F)F)cc4)n(C)n3)cc2)c1` [Example C-5, N-[5-[4-[[(Z)-[3-(2-isopropyl-5-methyl-phenyl)-4-oxo-thiazolidin-2-ylidene]carbamoyl]amino]phenyl]-2-methyl-1,2,4-triazol-3-yl]-4-(trifluoromethoxy)benzamide]: the mortality at 300 ppm in test [1], in test [2] and in test [4] was ≥ 75% each time. In addition, the mortality at 800 ppm in test [5] and in test [6] was ≥ 75% throughout.
With `Cc1ccc(C(C)C)c(N2C(=O)CS/C2=N\C(=O)N(C)c2ccc(-c3nn(C)c(NC(=O)c4ccc(OC(F)(F)F)cc4)c3C)cc2)c1` [Example C-112, N-[5-[4-[[(Z)-[3-(2-isopropyl-5-methyl-phenyl)-4-oxo-thiazolidin-2-ylidene]carbamoyl]-methyl-amino]phenyl]-2,4-dimethyl-pyrazol-3-yl]-4-(trifluoromethoxy)benzamide], the mortality at 800 ppm in test [7] is ≥ 75%; in test [3], ≥ 50%; in test [5], ≥ 75%; in test [6], ≥ 75%.
Consider `Cc1ccc(C(C)C)c(N2C(=O)CS/C2=N\C(=O)Nc2ccc(-c3nn(C)c(N(C)C(=O)c4ccc(C(F)(F)F)cc4)c3C)cc2)c1` [Example C-4, N-[5-[4-[[(Z)-[3-(2-isopropyl-5-methyl-phenyl)-4-oxo-thiazolidin-2-ylidene]carbamoyl]amino]phenyl]-2,4-dimethyl-pyrazol-3-yl]-N-methyl-4-(trifluoromethyl)benzamide], for which the mortality at 300 ppm in test [1], in test [2] and in test [4] was ≥ 75% each time. The mortality at 800 ppm in test [3] is ≥ 50%; in test [5], ≥ 75%; in test [6] it was ≥ 75%.
Regarding `Cc1ccc(C(C)C)c(N2C(=O)CS/C2=N\C(=O)Nc2ccc(-c3nn(C)c(NC(=O)c4ccc(OC(F)(F)F)cc4)c3C#N)cc2)c1` [Example C-7, N-[4-cyano-5-[4-[[(Z)-[3-(2-isopropyl-5-methyl-phenyl)-4-oxo-thiazolidin-2-ylidene]carbamoyl]amino]phenyl]-2-methyl-pyrazol-3-yl]-4-(trifluoromethoxy)benzamide], the mortality at 300 ppm in test [1], in test [2] and in test [4] was ≥ 75% each time. The mortality at 800 ppm was ≥ 50% in test [3], ≥ 75% in test [5] and ≥ 75% in test [6].
For the compound `Cc1ccc(C(C)C)c(N2C(=O)CS/C2=N\C(=O)Nc2ccc(-c3nn(C)c(NC(=O)c4ccc(C(F)(F)F)cc4)c3C)cc2)c1` [Example C-1, N-[5-[4-[[(Z)-[3-(2-isopropyl-5-methyl-phenyl)-4-oxo-thiazolidin-2-ylidene]carbamoyl]amino]phenyl]-2,4-dimethyl-pyrazol-3-yl]-4-(trifluoromethyl)benzamide], the mortality at 300 ppm in test [1], in test [2] and in test [4] was ≥ 75% in each case. In addition, the mortality at 800 ppm in test [3] is ≥ 50%; in test [5] it was ≥ 75%; in test [6], ≥ 75%.
Take `CC(=O)OCS/C(=N\C(=O)Nc1ccc(-c2nn(C)c(NC(=O)c3ccc(C(F)(F)F)cc3)c2C)cc1)Nc1cc(C)ccc1C(C)C` [Example C-2, [(Z)-N′-[[4-[1,4-dimethyl-5-[[4-(trifluoromethyl)benzoyl]amino]pyrazol-3-yl]phenyl]carbamoyl]-N-(2-isopropyl-5-methyl-phenyl)carbamimidoyl]sulfanylmethyl acetate]: the mortality at 300 ppm in test [1], in test [2] and in test [4] was ≥ 75% throughout. Besides, the mortality at 800 ppm in test [3] was ≥ 50%; in test [5] it was ≥ 75%; in test [6] it was ≥ 75%.
Turning to `CC(C)c1ccccc1N1C(=O)CS/C1=N\C(=O)Nc1ccc(-c2nc(NC(=O)c3ccc(OC(F)(F)F)cc3)n(C)n2)cc1` [Example C-119], the “egg and larval mortality” value in test [7] (25 ppm) is listed as 75. Moreover, the mortality at 800 ppm in test [7] and in test [5] was ≥ 75% throughout. Also, the mortality at 300 ppm in test [1] is ≥ 75%.
For the compound `CC(C)c1ccccc1N1C(=O)CS/C1=N\C(=O)Nc1ccc(-c2nc(Nc3cccc(OC(F)(F)F)c3)n(C)n2)cc1` [EP3974414 I-006, reference compound], the “egg and larval mortality” value in test [7] (25 ppm) is given as 38; in test [7] (100 ppm), 0.
